Active and inactive are the calls of the source. The rule behind the calls is not given here.
What was measured:
[1] = target: T1, Programmed cell death 1 ligand 1 (Homo sapiens, UniProt Q9NZQ7); assay: Antagonist activity at human PDL1 assessed as inhibition of human PD1 interaction with human PDL1 by ELISA
[2] = target: T1, Programmed cell death 1 ligand 1; assay: Antagonist activity at PDL1 overexpressing in IFN-gamma pretreated human LoVo cells assessed as restoration of human Jurkat T cell activation by measuring induction of IL-2 production at 10 ug/ml incubated for 24 hrs by ELISA; settings: filed as antagonist, dose 10.0 µg/ml
CT26 [3] = assay: Antitumor activity against mouse CT26 cells xenografted in BALB/c mouse assessed as reduction in tumor growth at 10 mg/kg, ip administered for 7 days and measured on day 7 by caliper analysis; type: functional, organism-based; settings: time 7.0 day
[4] = Toxicity in BALB/c mouse xenografted with mouse CT26 cells assessed as reduction in body weight at 10 mg/kg, ip administered for 7 days and measured on day 7; type: organism-based; settings: in vivo, 168 h, time 7 day
CT26 [5] = assay: Antitumor activity against mouse CT26 cells assessed as reduction in cell viability at 10 to 100 ug/ml incubated for 24 to 72 hrs by MTT assay; type: functional, cell-based; settings: dose 10-100 µg/ml, time 24-72 hrs
[6] = Toxicity in BALB/c mouse xenografted with mouse CT26 cells assessed as effect on kidney damage at 10 mg/kg, ip administered for 7 days and measured on day 7 by hematoxylin and eosin staining based assay; type: organism-based; settings: in vivo, 168 h, time 7 day
[7] = Toxicity in BALB/c mouse xenografted with mouse CT26 cells assessed as effect on spleen damage at 10 mg/kg, ip administered for 7 days and measured on day 7 by hematoxylin and eosin staining based assay; type: organism-based; settings: in vivo, 168 h, time 7 day
[8] = Toxicity in BALB/c mouse xenografted with mouse CT26 cells assessed as effect on liver damage at 10 mg/kg, ip administered for 7 days and measured on day 7 by hematoxylin and eosin staining based assay; type: organism-based; settings: in vivo, 168 h, time 7 day
[9] = Toxicity in BALB/c mouse xenografted with mouse CT26 cells assessed as GOT level in blood at 10 mg/kg, ip administered for 7 days and measured on day 7 (reference value: 93 +/- 8 U/L); type: organism-based; settings: in vivo, 168 h, time 7 day
[10] = Toxicity in BALB/c mouse xenografted with mouse CT26 cells assessed as GPT level in blood at 10 mg/kg, ip administered for 7 days and measured on day 7 (reference value: 50 +/- 7 U/L); type: organism-based; settings: in vivo, 168 h, time 7 day
[11] = Toxicity in BALB/c mouse xenografted with mouse CT26 cells assessed as BUN level in blood at 10 mg/kg, ip administered for 7 days and measured on day 7 (reference value: 76 +/- 5 mg/dl); type: organism-based; settings: in vivo, 168 h, time 7 day

T1 sequence (Q9NZQ7 whole entry): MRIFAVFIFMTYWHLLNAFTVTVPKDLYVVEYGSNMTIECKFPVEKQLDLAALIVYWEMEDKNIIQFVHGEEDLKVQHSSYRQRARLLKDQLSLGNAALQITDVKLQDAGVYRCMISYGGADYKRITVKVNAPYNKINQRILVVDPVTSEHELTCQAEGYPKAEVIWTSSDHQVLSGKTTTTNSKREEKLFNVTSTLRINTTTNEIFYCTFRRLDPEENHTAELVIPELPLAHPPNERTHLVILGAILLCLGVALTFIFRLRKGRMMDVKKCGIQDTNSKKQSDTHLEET

| Compound | IC50 [1] | IL-2 induction activity [2] | TGI (CT26 [3]) | Activity [4] | Activity (CT26 [5]) | Activity [6] | Activity [7] | Activity [8] | Activity [9] | Activity [10] | Activity [11] |
| --- | --- | --- | --- | --- | --- | --- | --- | --- | --- | --- | --- |
| H-CGAISLAPKLQIKES-OH | 93.5 µM |  |  |  |  |  |  |  |  |  |  |
| H-CGAISLAPKAQIKES-OH | 19.2 µM |  |  |  |  |  |  |  |  |  |  |
| CC[C@H](C)[C@@H]1NC(=O)[C@H](C)NC(=O)CNC(=O)CNC(=O)[C@@H](CCC(=O)O)NC(=O)[C@H](CC(N)=O)NC(=O)[C@H]([C@@H](C)CC)NC(=O)[C@H](CCC(N)=O)NC(=O)[C@H](CC(C)C)NC(=O)[C@H](CCCCN)NC(=O)[C@@H]2CCCN2C(=O)[C@H](C)NC(=O)[C@H](CC(C)C)NC(=O)[C@H](CO)NC1=O | 0.71 µM | Active | Active | Non-Toxic | inactive | Non-Toxic | Non-Toxic | Non-Toxic | 97 U/L | 51 U/L | 81 mg/dL |
| H-GAISLAPKLQIND-OH | 4.4 µM | Active | inactive | Non-Toxic | inactive |  |  |  |  |  |  |
| CC[C@H](C)[C@H](NC(=O)[C@H](C)NC(=O)CN)C(=O)N[C@@H](CO)C(=O)N[C@@H](CC(C)C)C(=O)N[C@@H](C)C(=O)N1CCC[C@H]1C(=O)N[C@@H](CCCCN)C(=O)N[C@@H](CC(C)C)C(=O)N[C@@H](CCC(N)=O)C(=O)N[C@H](C(=O)N[C@@H](CC(N)=O)C(=O)N[C@H](CCC(=O)O)C(=O)O)[C@@H](C)CC | 1.56 µM | Active | Active | Non-Toxic | inactive | Non-Toxic | Non-Toxic | Non-Toxic | 82 U/L | 54 U/L | 69 mg/dL |
| CC[C@H](C)[C@H](NC(=O)[C@H](C)NC(=O)CN)C(=O)N[C@@H](CO)C(=O)N[C@@H](CC(C)C)C(=O)N[C@@H](C)C(=O)N1CCC[C@H]1C(=O)N[C@@H](CCCCN)C(=O)N[C@@H](CC(C)C)C(=O)N[C@@H](CCC(N)=O)C(=O)N[C@H](C(=O)N[C@@H](CC(N)=O)C(=O)N[C@@H](CCC(=O)O)C(=O)O)[C@@H](C)CC | 5.6 µM | Active | inactive | Non-Toxic | inactive |  |  |  |  |  |  |
| H-CGAISLAPKLQINES-OH | 80.7 µM |  |  |  |  |  |  |  |  |  |  |
